# According to patent US11939307B2, “Phenylmethyl-piperazine derivatives and antiviral uses thereof” (INSTITUTE OF MEDICINAL BIOTECHNOLOGY, CHINESE ACADEMY OF …, priority 2019, dated 2024):
# Test system: HCV
# Assay: Assay of anti-HCV activity in HCV-infected Huh7.5 cells (intracellular HCV RNA by one-step quantitative RT-PCR)
# Format: cell-based
# Conditions: Hepatitis C virus, Huh7.5, 96 h, read-out: inhibitory activities (inhibitory levels of the compounds against HCV replication)
# Method: 100 μL Huh7.5 cells were seeded at a density of 1×10^5/mL in a 96-well cell culture plate and incubated in an incubator at 37° C., 5% CO2 and saturated humidity for 6 hrs. Then, while infecting Huh7.5 cells with viral solution containing HCV virus particles, the compounds of the present invention (including all specific compounds listed herein) were added at a concentration of 1 μM, respectively. After continuing incubation for 96 hrs, the total intracellular RNA was extracted separately, and the content of intracellular HCV RNA was measured by one-step quantitative RT-PCR, compared with the RNA level of the viral control, and the inhibition rate of the compounds against HCV was calculated.
row,SMILES,inhibition at 1 µM [%]
1,"CN(CCN1CC1)c1ccc(C(F)(F)F)c(CN2CCN(C(c3ccc(Cl)cc3)c3ccc(Cl)cc3)CC2)c1 [Compound 64, N-(2-(aziridin-1-yl)ethyl)-3-((4-(bis(4-chlorophenyl)methyl)piperazin-1-yl)methyl)-N-methyl-4-(trifluoromethyl)aniline]",> 75

# Same assay, conditions: Hepatitis C virus; compound at 1 μM; Huh7.5 cells infected with HCV; 96 hrs; intracellular HCV RNA vs viral control; read-out: inhibitory activities (inhibitory levels of the compounds against HCV replication)
row,SMILES,inhibition at 1 µM [%]
1,"CN1CCCN(c2ccc(C(F)(F)F)c(CN3CCN(C(c4ccc(Cl)cc4)c4ccccn4)CC3)c2)CC1 (centres unmarked) [Compound 56, 1-(3-((4-((4-chlorophenyl)(pyridin-2-yl)methyl)piperazin-1-yl)methyl)-4-(trifluoromethyl)phenyl)-4-methyl-1,4-diazepane]",50 to 75
2,"CN1CCCN(c2ccc(C(F)(F)F)c(CN3CCN(C(c4ccccc4)c4ccccn4)CC3)c2)CC1 (centres unmarked) [Compound 57, 1-methyl-4-(3-((4-(phenyl(pyridin-2-yl)methyl)piperazin-1-yl)methyl)-4-(trifluoromethyl)phenyl)-1,4-diazepane]",50 to 75
3,"COc1ccc(C(c2ccc(OC)cc2)N2CCN(Cc3cc(N(C)CCN(C)C)ccc3C(F)(F)F)CC2)cc1 [Compound 58, N^1-(3-((4-(bis(4-methoxyphenyl)methyl)piperazin-1-yl)methyl)-4-(trifluoromethyl)phenyl)-N^1,N^2,N^2-trimethylethan-1,2-diamine]",> 75
4,"CCCN(CCN(C)C)c1ccc(C(F)(F)F)c(CN2CCN(C(c3ccc(Cl)cc3)c3ccc(Cl)cc3)CC2)c1 [Compound 59, N^1-(3-((4-(bis(4-chlorophenyl)methyl)piperazin-1-yl)methyl)-4-(trifluoromethyl)phenyl)-N^2,N^2-dimethyl-N^1-propylethan-1,2-diamine]",> 75
5,"CC1CN(C(c2ccc(F)cc2)c2ccc(F)cc2)CCN1Cc1cc(N2CCCN(C)CC2)ccc1C(F)(F)F (centres unmarked) [Compound 60, 1-(3-((4-(bis(4-fluorophenyl)methyl)-2-methylpiperazin-1-yl)methyl)-4-(trifluoromethyl)phenyl)-4-methyl-1,4-diazepane]",> 75
6,"CC1CN(C(c2ccc(Cl)cc2)c2ccc(Cl)cc2)CCN1Cc1cc(N2CCCN(C)CC2)ccc1C(F)(F)F (centres unmarked) [Compound 61, 1-(3-((4-(bis(4-chlorophenyl)methyl)-2-methylpiperazin-1-yl)methyl)-4-(trifluoromethyl)phenyl)-4-methyl-1,4-diazepane]",> 75
7,"CN(CC1CCCN1C)c1ccc(C(F)(F)F)c(CN2CCN(C(c3ccc(Cl)cc3)c3ccc(Cl)cc3)CC2)c1 (centres unmarked) [Compound 62, 3-((4-(bis(4-chlorophenyl)methyl)piperazin-1-yl)methyl)-N-methyl-N-((1-methylpyrrolidin-2-yl)methyl)-4-(trifluoromethyl)aniline]",> 75
8,"CN(CCN1CCCC1)c1ccc(C(F)(F)F)c(CN2CCN(C(c3ccc(Cl)cc3)c3ccc(Cl)cc3)CC2)c1 [Compound 63, 3-((4-(bis(4-chlorophenyl)methyl)piperazin-1-yl)methyl)-N-methyl-N-(2-(pyrrolidin-1-yl)ethyl)-4-(trifluoromethyl)aniline]",> 75
9,"CCN1CCCN(c2ccc(C(F)(F)F)c(CN3CCN(C(c4ccccn4)c4ccccn4)CC3)c2)CC1 [Compound 65, 1-(3-((4-(di(pyridin-2-yl)methyl)piperazin-1-yl)methyl)-4-(trifluoromethyl)phenyl)-4-ethyl-1,4-diazepane]",50 to 75
10,"CN(C)CCN(C)c1ccc(C(F)(F)F)c(CN2CCN(C(c3ccc(F)cc3)c3ccc(F)cc3)CC2)c1 [Compound 66, N^1-(3-((4-(bis(4-fluorophenyl)methyl)piperazin-1-yl)methyl)-4-(trifluoromethyl)phenyl)-N^1,N^2,N^2-trimethylethan-1,2-diamine]",> 75
11,"CN(C)C1CCCN(c2ccc(C(F)(F)F)c(CN3CCN(C(c4ccc(Cl)cc4)c4ccc(Cl)cc4)CC3)c2)C1 (centres unmarked) [Compound 67, 1-(3-((4-(bis(4-chlorophenyl)methyl)piperazin-1-yl)methyl)-4-(trifluoromethyl)phenyl)-N,N-dimethylpiperidin-3-amine]",> 75
12,"CN1CCN(c2ccc(C(F)(F)F)c(CN3CCN(C(c4ccc(Br)cc4)c4ccc(Br)cc4)CC3)c2)CC1 [Compound 68, 1-(bis(4-bromophenyl)methyl)-4-(5-(4-methylpiperazin-1-yl)-2-(trifluoromethyl)benzyl)piperazine]",> 75
13,"CN(C)C1CCN(c2ccc(C(F)(F)F)c(CN3CCN(C(c4ccc(F)cc4)c4ccc(F)cc4)CC3)c2)CC1 [Compound 69, 1-(3-((4-(bis(4-fluorophenyl)methyl)piperazin-1-yl)methyl)-4-(trifluoromethyl)phenyl)-N,N-dimethylpiperidin-4-amine]",> 75
14,"CCCN(C)CCN(C)c1ccc(C(F)(F)F)c(CN2CCN(C(c3ccc(Cl)cc3)c3ccc(Cl)cc3)CC2)c1 [Compound 70, N^1-(3-((4-(bis(4-chlorophenyl)methyl)piperazin-1-yl)methyl)-4-(trifluoromethyl)phenyl)-N^1,N^2-dimethyl-N^2-propylethan-1,2-diamine]",> 75
15,"CN(C)CCN(C)CCN(C)c1ccc(C(F)(F)F)c(CN2CCN(C(c3ccc(F)cc3)c3ccc(F)cc3)CC2)c1 [Compound 71, N^1-(3-((4-(bis(4-fluorophenyl)methyl)piperazin-1-yl)methyl)-4-(trifluoromethyl)phenyl)-N^2-(2-(dimethylamino)ethyl)-N^1,N^2-dimethylethan-1,2-diamine]",> 75
16,"CN(C)CCN(C)c1ccc(C(F)(F)F)c(CN2CCC(C(c3ccc(Cl)cc3)c3ccc(Cl)cc3)CC2)c1 [Compound 72, N^1-(3-((4-(bis(4-chlorophenyl)methyl)piperidin-1-yl)methyl)-4-(trifluoromethyl)phenyl)-N^1,N^2,N^2-trimethylethan-1,2-diamine]",> 75
17,"CN(C)CCN(C)c1ccc(C(F)(F)F)c(CN2CCC(C(c3ccc(Br)cc3)c3ccc(Br)cc3)CC2)c1 [Compound 73, N^1-(3-((4-(bis(4-bromophenyl)methyl)piperidin-1-yl)methyl)-4-(trifluoromethyl)phenyl)-N^1,N^2,N^2-trimethylethan-1,2-diamine]",> 75
18,"CN(C)CCN(C)c1ccc(C#N)c(CN2CCN(C(c3ccc(Cl)cc3)c3ccc(Cl)cc3)CC2)c1 [Compound 74, 2-((4-(bis(4-chlorophenyl)methyl)piperazin-1-yl)methyl)-4-((2-(dimethylamino)ethyl)(methyl)amino)benzonitrile]",> 75
19,"COc1ccc(C(c2ccc(OC)cc2)N2CCN(Cc3cc(N4CCCN(C)CC4)ccc3C#N)CC2)cc1 [Compound 75, 2-((4-(bis(4-methoxyphenyl)methyl)piperazin-1-yl)methyl)-4-(4-methyl-1,4-diazepan-1-yl)benzonitrile]",> 75
20,"CN1CCCN(c2ccc(C#N)c(CN3CCN(C(c4ccc(F)cc4)c4ccc(F)cc4)CC3)c2)CC1 [Compound 76, 2-((4-(bis(4-fluorophenyl)methyl)piperazin-1-yl)methyl)-4-(4-methyl-1,4-diazepan-1-yl)benzonitrile]",> 75
21,"CN1CCCN(c2ccc(C#N)c(CN3CCN(C(c4ccc(Cl)cc4)c4ccc(Cl)cc4)CC3)c2)CC1 [Compound 77, 2-((4-(bis(4-chlorophenyl)methyl)piperazin-1-yl)methyl)-4-(4-methyl-1,4-diazepan-1-yl)benzonitrile]",> 75
22,"CN(CCn1ccnc1)c1ccc(C#N)c(CN2CCN(C(c3ccc(Cl)cc3)c3ccc(Cl)cc3)CC2)c1 [Compound 78, 4-((2-(1H-imidazol-1-yl)ethyl)(methyl)amino)-2-((4-(bis(4-chlorophenyl)methyl)piperazin-1-yl)methyl)benzonitrile]",> 75
23,"CN(C)CCN(C)c1ccc(C#N)c(CN2CCN(C(c3ccncc3)c3ccncc3)CC2)c1 [Compound 79, 2-((4-(di(pyridin-4-yl)methyl)piperazin-1-yl)methyl)-4-((2-(dimethylamino)ethyl)(methyl)amino)benzonitrile]",50 to 75
24,"CN1CCN(c2ccc(C#N)c(CN3CCN(C(c4ccc(Cl)cc4)c4ccc(Cl)cc4)CC3)c2)CC1 [Compound 80, 2-((4-(bis(4-chlorophenyl)methyl)piperazin-1-yl)methyl)-4-(4-methylpiperazin-1-yl)benzonitrile]",> 75
25,"CC(C)c1ccc(C(c2ccc(C(C)C)cc2)N2CCN(Cc3cc(N(C)CCN(C)C)ccc3C#N)CC2)cc1 [Compound 81, 2-((4-(bis(4-isopropylphenyl)methyl)piperazin-1-yl)methyl)-4-((2-(dimethylamino)ethyl)(methyl)amino)benzonitrile]",> 75
26,"CN(C)CCN(C)c1ccc(C#N)c(CN2CCN(C(c3ccc(C(C)(C)C)cc3)c3ccc(C(C)(C)C)cc3)CC2)c1 [Compound 82, 2-((4-(bis(4-tert-butylphenyl)methyl)piperazin-1-yl)methyl)-4-((2-(dimethylamino)ethyl)(methyl)amino)benzonitrile]",> 75
27,"CN(C)CCN(C)c1ccc(C#N)c(CN2CCN(C(c3ccc(Br)cc3)c3ccc(Br)cc3)CC2)c1 [Compound 83, 2-((4-(bis(4-bromophenyl)methyl)piperazin-1-yl)methyl)-4-((2-(dimethylamino)ethyl)(methyl)amino)benzonitrile]",> 75
28,"CN(C)CCN(C)c1ccc(C#N)c(CN2CCN(C(c3ccc(C4CC4)cc3)c3ccc(C4CC4)cc3)CC2)c1 [Compound 84, 2-((4-(bis(4-cyclopropylphenyl)methyl)piperazin-1-yl)methyl)-4-((2-(dimethylamino)ethyl)(methyl)amino)benzonitrile]",> 75
